The source made the active and inactive calls. The rule behind the calls is not given here.

The data set concerns rodent carcinogenicity bioassays, tumor incidence. The experiment in a line: CCRIS carcinogenicity studies. In outline: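 Archive of carcinogenicity, mutagenicity, tumor promotion and tumor inhibition results drawn from journals, NCI reports and other sources, expert-reviewed; covers 1985-2011 and is no longer updated.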

Turning to `Nc1nc(/C=C/c2ccc([N+](=O)[O-])o2)no1`, the carcinogen call is, setting by setting: (Species: MOUSE, Strain/Sex: CD-1/FEMALE, Route: GAVAGE, Dose: 0, 41, 82, 173 MG/KG/D SUSPENDED IN 25% GLYCEROL 4 D/WK FOR 371 D (TOTAL DOSE 0; 15.4; 30.9; 64.2 G) (STUDY DURATION: LI, Dose: 0, 41, 82, 173 MG/KG/D SUSPENDED IN 25% GLYCEROL 4 D/WK FOR 371 D (TOTAL DOSE 0; 15.4; 30.9; 64.2 G) (STUDY DURATION: LI, Tumor Site: Type of Lesion: THYMUS: LYMPHOMA, BLADDER: TRANSITIONAL CELL CARCINOMA, STOMACH: SQUAMOUS CELL CARCINOMA, SQUAMOUS PAPILLOMA, LUNG: ADEN, Tumor Site: Type of Lesion: THYMUS: LYMPHOMA, BLADDER: TRANSITIONAL CELL CARCINOMA, STOMACH: SQUAMOUS CELL CARCINOMA, SQUAMOUS PAPILLOMA, LUNG: ADEN) “active; positive”; (Species: MOUSE, Strain/Sex: CD-1/FEMALE, Route: ORAL, Dose: 0, 0.17% IN DIET FOR 58 WK (STUDY DURATION: 91 WK), Tumor Site: Type of Lesion: HEMATOPOIETIC SYSTEM: LYMPHOMA, THYMUS: LYMPHOMA, STOMACH: SQUAMOUS CELL CARCINOMA, SPINDLE CELL TUMOR, Tumor Site: Type of Lesion: HEMATOPOIETIC SYSTEM: LYMPHOMA, THYMUS: LYMPHOMA, STOMACH: SQUAMOUS CELL CARCINOMA, SPINDLE CELL TUMOR) “active; positive”; (Species: MOUSE, Strain/Sex: CD-1/FEMALE, Route: ORAL, Dose: 0, 0.25% IN DIET FOR 31 WK (STUDY DURATION: LIFE), Tumor Site: Type of Lesion: THYMUS: LYMPHOMA, STOMACH: SQUAMOUS CELL CARCINOMA, LUNG: ADENOMA, MAMMARY GLAND: ADENOCARCINOMA, Tumor Site: Type of Lesion: THYMUS: LYMPHOMA, STOMACH: SQUAMOUS CELL CARCINOMA, LUNG: ADENOMA, MAMMARY GLAND: ADENOCARCINOMA) “active; positive”; (Species: MOUSE, Strain/Sex: CD-1/MALE, Route: GAVAGE, Dose: 0, 45, 87, 185 MG/KG/D SUSPENDED IN 25% GLYCEROL 4 D/WK FOR 371 D (TOTAL DOSE 0; 16.8; 32.3; 68.8 G) (STUDY DURATION: LI, Dose: 0, 45, 87, 185 MG/KG/D SUSPENDED IN 25% GLYCEROL 4 D/WK FOR 371 D (TOTAL DOSE 0; 16.8; 32.3; 68.8 G) (STUDY DURATION: LI, Tumor Site: Type of Lesion: THYMUS: LYMPHOMA, BLADDER: TRANSITIONAL CELL CARCINOMA, STOMACH: SQUAMOUS CELL CARCINOMA, SQUAMOUS PAPILLOMA, LUNG: ADEN, Tumor Site: Type of Lesion: THYMUS: LYMPHOMA, BLADDER: TRANSITIONAL CELL CARCINOMA, STOMACH: SQUAMOUS CELL CARCINOMA, SQUAMOUS PAPILLOMA, LUNG: ADEN) “active; positive”; (Species: MOUSE, Strain/Sex: CD-1/MALE, Route: ORAL, Dose: 0, 0.18% IN DIET FOR 58 WK (STUDY DURATION: 92 WK), Tumor Site: Type of Lesion: THYMUS: LYMPHOMA, BLADDER: TRANSITIONAL CELL CARCINOMA, STOMACH: SQUAMOUS CELL CARCINOMA, SPINDLE CELL TUMOR, Tumor Site: Type of Lesion: THYMUS: LYMPHOMA, BLADDER: TRANSITIONAL CELL CARCINOMA, STOMACH: SQUAMOUS CELL CARCINOMA, SPINDLE CELL TUMOR) “active; positive”; (Species: MOUSE, Strain/Sex: CD-1/MALE, Route: ORAL, Dose: 0, 0.25% IN DIET FOR 38 WK (STUDY DURATION: LIFE), Tumor Site: Type of Lesion: THYMUS: LYMPHOMA, BLADDER: TRANSITIONAL CELL CARCINOMA, SPINDLE CELL TUMOR, STOMACH: SQUAMOUS CELL CARCINOMA, SQUAMOUS P, Tumor Site: Type of Lesion: THYMUS: LYMPHOMA, BLADDER: TRANSITIONAL CELL CARCINOMA, SPINDLE CELL TUMOR, STOMACH: SQUAMOUS CELL CARCINOMA, SQUAMOUS P) “active; positive”.
Take `O=C(O)Nc1ccc(-c2ccccc2)cc1`: the carcinogen call (Species: RAT, Strain/Sex: STRAIN-CD/FEMALE, Route: INTRAPERITONEAL, Dose: 0, 100 UMOL/KG BW 2/WK FOR 6 WK (STUDY DURATION: 62 WK)) is “inactive; negative”.
Consider `Cc1ccccc1N`, for which the carcinogen call was “active; positive” (Species: MOUSE, Strain/Sex: B6C3F1/FEMALE, Route: ORAL, Dose: 0, 1000, 3000 PPM IN DIET FOR 103 WK, Dose: 0, 1000, 3000 PPM IN DIET FOR 103 WK, Tumor Site: Type of Lesion: LIVER: HEPATOCELLULAR CARCINOMA OR HEPATOCELLULAR ADENOMA); “active; positive” (Species: MOUSE, Strain/Sex: B6C3F1/MALE, Route: ORAL, Dose: 0, 1000, 3000 PPM IN DIET FOR 102-103 WK, Dose: 0, 1000, 3000 PPM IN DIET FOR 102-103 WK, Tumor Site: Type of Lesion: BLOOD VESSELS: HEMANGIOMA OR HEMANGIOSARCOMA); “active; positive” (Species: MOUSE, Strain/Sex: CD-1/MALE,FEMALE, Route: ORAL, Dose: 0, 16000, 32000 MG/KG FOR 3 MO, THEN 0, 8000, 16000 MG/KG FOR 15 MO, Dose: 0, 16000, 32000 MG/KG FOR 3 MO, THEN 0, 8000, 16000 MG/KG FOR 15 MO, Tumor Site: Type of Lesion: BLOOD VESSELS: HEMANGIOMA, HEMANGIOSARCOMA); “active; positive” (Species: RAT, Strain/Sex: CD-1/MALE, Route: ORAL, Dose: 0, 8000, 16000 MG/KG FOR 3 MO, THEN 0, 4000, 8000 MG/KG FOR 15 MO, Dose: 0, 8000, 16000 MG/KG FOR 3 MO, THEN 0, 4000, 8000 MG/KG FOR 15 MO, Tumor Site: Type of Lesion: INTEGUMENTARY SYSTEM (SUBCUTANEOUS TISSUE): FIBROMA, FIBROSARCOMA); “active; positive” (Species: RAT, Strain/Sex: F344/FEMALE, Route: ORAL, Dose: 0, 3000, 6000, PPM IN DIET FOR 104 WK (STUDY DURATION: 104 WK), Dose: 0, 3000, 6000, PPM IN DIET FOR 104 WK (STUDY DURATION: 104 WK), Tumor Site: Type of Lesion: SPLEEN OR PERITONEUM: SARCOMA); “active; positive” (Species: RAT, Strain/Sex: F344/FEMALE, Route: ORAL, Dose: 0, 3000, 6000 PPM IN DIET FOR 104 WK, Dose: 0, 3000, 6000 PPM IN DIET FOR 104 WK, Tumor Site: Type of Lesion: SPLEEN: ANGIOSARCOMA, SARCOMA (NOS) OR ANGIOSARCOMA OR OSTEOSARCOMA, URINARY BLADDER: TRANSITIONAL CELL CARCINOMA, TRANS). Also, the carcinogen call runs as follows: (Species: RAT, Strain/Sex: F344/MALE, Route: ORAL, Dose: 0, 3000, 6000 PPM IN DIET FOR 101-104 WK, Dose: 0, 3000, 6000 PPM IN DIET FOR 101-104 WK, Tumor Site: Type of Lesion: INTEGUMENTARY SYSTEM (SUBCUTANEOUS TISSUE): FIBROMA, SPLEEN: FIBROMA, ANGIOSARCOMA, MULTIPLE ORGANS OR TUNICA VAGINALIS:, Tumor Site: Type of Lesion: INTEGUMENTARY SYSTEM (SUBCUTANEOUS TISSUE): FIBROMA, SPLEEN: FIBROMA, ANGIOSARCOMA, MULTIPLE ORGANS OR TUNICA VAGINALIS:) “active; positive”; (Species: RAT, Strain/Sex: F344/MALE, Route: ORAL, Dose: 0, 3000, 6000 PPM IN DIET FOR 104 WK (STUDY DURATION: 104 WK), Dose: 0, 3000, 6000 PPM IN DIET FOR 104 WK (STUDY DURATION: 104 WK), Tumor Site: Type of Lesion: SPLEEN OR PERITONEUM: SARCOMA) “active; positive”; (Species: RAT, Strain/Sex: F344/MALE, Route: ORAL, Dose: 4.0 G/KG IN DIET FOR 72 WK (TOTAL DOSE 0.22 MOL/RAT), Tumor Site: Type of Lesion: SPLEEN: FIBROMA, INTEGUMENTARY SYSTEM (SKIN): FIBROMA, MAMMARY GLAND: FIBROADENOMA, ADENOCARCINOMA, PERITONEAL CAVITY: M, Tumor Site: Type of Lesion: SPLEEN: FIBROMA, INTEGUMENTARY SYSTEM (SKIN): FIBROMA, MAMMARY GLAND: FIBROADENOMA, ADENOCARCINOMA, PERITONEAL CAVITY: M) “active; positive”.
`CC(=O)OC/C=C(\C)CCC=C(C)C`: the carcinogen call reads like this: (Species: MOUSE, Strain/Sex: B6C3F1/MALE, Route: GAVAGE, Dose: 0, 500 MG/KG OF FOOD GRADE (29% CITRONELLYL ACETATE) IN CORN OIL 5D/WK FOR 102 WK (STUDY DURATION: 104 WK)) “inactive; negative”; (Species: RAT, Strain/Sex: F344/FEMALE, Route: GAVAGE, Dose: 0, 1000, 2000 MG/KG OF FOOD GRADE (29% CITRONELLYL ACETATE) IN CORN OIL 5D/WK FOR 103 WK (STUDY DURATION: 104 WK), Dose: 0, 1000, 2000 MG/KG OF FOOD GRADE (29% CITRONELLYL ACETATE) IN CORN OIL 5D/WK FOR 103 WK (STUDY DURATION: 104 WK)) “inactive; negative”; (Species: RAT, Strain/Sex: F344/MALE, Route: GAVAGE, Dose: 0, 1000 MG/KG OF FOOD GRADE (29% CITRONELLYL ACETATE) IN CORN OIL 5D/WK FOR 103 WK (STUDY DURATION: 104 WK)) “inactive; negative”.

For the origin of these results see PubChem BioAssay AID1259411 (Chemical Carcinogenesis Research Information System (CCRIS), 2018).
